From PubChem BioAssay (NCI)
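In this assay, cells in 96-well plates receive the compound at five concentrations for 48 hours. Endpoints are linearly interpolated between the surrounding concentrations. GI50: concentration for 50% inhibition of growth. The concentration for full growth arrest is given as TGI.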

Key:
Assay in all cases: NCI tumour cell line growth inhibition, 48 h
[1] = system: T-47D breast
[2] = system: BT-549 breast
[3] = system: MDA-MB-435
[4] = system: HS 578T breast
[5] = system: XF 498 CNS
[6] = system: 786-0 renal
[7] = system: SNB-78 CNS
[8] = system: DLD-1 colon
[9] = system: KM20L2 colon
[10] = system: DMS 273 small cell lung
[11] = system: LXFL 529 NSCLC
[12] = system: M19-MEL melanoma
[13] = system: HOP-18 NSCLC
[14] = system: RXF-631 renal
[15] = system: NCI/ADR-RES ovarian
[16] = system: MDA-N
[17] = system: DU-145 prostate
[18] = system: SN12K1 renal
[19] = system: P388 leukemia

COc1cc(CC2CCc3nc(N)nc(N)c3C2)cc(OC)c1OC (stereo not drawn)
TGI [1]: > 100 µM | TGI [2]: > 100 µM | TGI [3]: > 100 µM | TGI [4]: > 100 µM

CCSC(=Nc1ccccc1)SC
TGI [5]: > 100 µM | TGI [6]: > 100 µM | TGI [7]: > 100 µM | TGI [8]: > 100 µM | TGI [9]: > 100 µM | TGI [10]: > 100 µM | TGI [11]: > 100 µM | TGI [12]: > 100 µM | TGI [13]: > 100 µM | TGI [14]: > 100 µM

CC(N)Cc1cccc(C(F)(F)F)c1 (stereo not drawn)
TGI [6]: > 100 µM | TGI [7]: > 100 µM | TGI [8]: > 100 µM | TGI [9]: > 100 µM | TGI [10]: > 100 µM | TGI [11]: > 100 µM | TGI [12]: > 100 µM | TGI [13]: > 100 µM | TGI [14]: > 100 µM

N#CN=Nc1cc(Cl)c(N=NC#N)cc1Cl
TGI [5]: > 100 µM | TGI [7]: > 100 µM | TGI [8]: > 100 µM | TGI [9]: > 100 µM | TGI [10]: > 100 µM | TGI [11]: > 100 µM | TGI [12]: > 100 µM

C#CCCCC(=C)C[C@H](OCc1ccccc1)[C@H]1OC(=O)[C@@H]1C
TGI [2]: > 100 µM | TGI [15]: > 100 µM | TGI [16]: > 100 µM | TGI [3]: > 100 µM

NC(=O)/N=C(\N)NC(=O)c1ccccc1
TGI [1]: > 100 µM | TGI [2]: > 100 µM | TGI [6]: > 100 µM | TGI [17]: > 100 µM | TGI [15]: > 100 µM | TGI [16]: > 100 µM | TGI [3]: > 100 µM

CN(C)CCOc1cc2c(c3ccccc13)-c1ccccc1C2=O
TGI [18]: 2.04 µM | TGI [5]: 3.28 µM | TGI [7]: 23 µM | TGI [8]: 4.01 µM | TGI [9]: 5.3 µM | TGI [15]: 2.64 µM | TGI [10]: 1.85 µM | TGI [12]: 2.89 µM | TGI [13]: 8.58 µM | TGI [19]: 2.7 µM

COC(=O)c1cccc(NC(=O)Nc2ccc3oc(=O)c4ccccc4c3c2)c1
GI50 [17]: > 100 µM | TGI [17]: > 100 µM

Cc1nc(Nc2nnc(-c3cc([N+](=O)[O-])cc([N+](=O)[O-])c3C)o2)sc1C(=O)CC(=O)Cc1nc2ccc(Cl)cc2[nH]c1=O
TGI [5]: > 100 µM | TGI [7]: > 100 µM | TGI [9]: > 100 µM | TGI [10]: > 100 µM | TGI [11]: > 100 µM | TGI [12]: > 100 µM

CO/C(=N/N1CC1C(F)(F)F)c1ccncc1 (stereo not drawn)
TGI [1]: > 100 µM | TGI [2]: > 100 µM | TGI [17]: > 100 µM | TGI [15]: > 100 µM | TGI [16]: > 100 µM | TGI [3]: > 100 µM | TGI [4]: > 100 µM

O=C(CCl)N1CCCCC1C1(c2cc3ccccc3[nH]2)OCCO1 (stereo not drawn)
TGI [1]: 26 µM | TGI [2]: 6.83 µM | TGI [17]: 9.89 µM | TGI [15]: 14.6 µM | TGI [16]: 8.81 µM | TGI [3]: 17.8 µM | TGI [4]: 13.9 µM
